# In the supplement of paper PMC10307832:
# Assays:
# Experiment in all cases: relative viability (nuclei count vs DMSO), 5 days (fraction); higher = more cells survive
# Ispinesib + Crizotinib = compound: Cc1ccc(C(=O)N(CCCN)[C@@H](c2nc3cc(Cl)ccc3c(=O)n2Cc2ccccc2)C(C)C)cc1 [Ispinesib] + C[C@@H](Oc1cc(-c2cnn(C3CCNCC3)c2)cnc1N)c1c(Cl)ccc(F)c1Cl [Crizotinib] (partner 1 µM)
# Method in brief: (§1)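 After 5 days of treatment, lung cancer cells in 1536-well plates were fixed and stained in a single step (final 0.05% Triton X-100, 1% formaldehyde, 1 ug/ml Hoechst) and their nuclei counted on 4× images. Treatment had been applied by pin tool the day after seeding as one drug alone or as a fixed anchor-drug dose with five library-drug doses (not always all listed) in √10 steps. Relative viability is the nuclei count of treated wells divided by that of vehicle wells, and values are medians of duplicate plates.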
# Linsitinib + Foretinib = compound: C[C@]1(O)C[C@@H](c2nc(-c3ccc4ccc(-c5ccccc5)nc4c3)c3c(N)nccn32)C1 [Linsitinib] + COc1cc2c(Oc3ccc(NC(=O)C4(C(=O)Nc5ccc(F)cc5)CC4)cc3F)ccnc2cc1OCCCN1CCOCC1 [Foretinib] (partner 0.25 µM)
# Method in brief: as §1
# Ispinesib + Pictilisib = compound: Cc1ccc(C(=O)N(CCCN)[C@@H](c2nc3cc(Cl)ccc3c(=O)n2Cc2ccccc2)C(C)C)cc1 [Ispinesib] + CS(=O)(=O)N1CCN(Cc2cc3nc(-c4cccc5[nH]ncc45)nc(N4CCOCC4)c3s2)CC1 [Pictilisib] (partner 1 µM)
# Method in brief: as §1
# Linsitinib + Vorinostat = compound: C[C@]1(O)C[C@@H](c2nc(-c3ccc4ccc(-c5ccccc5)nc4c3)c3c(N)nccn32)C1 [Linsitinib] + O=C(CCCCCCC(=O)Nc1ccccc1)NO [Vorinostat] (partner 1 µM)
# Method in brief: as §1
Cell Line,relative viability (Ispinesib + Crizotinib; first compound 0.001 µM),relative viability (Ispinesib + Crizotinib; first compound 0.01 µM),relative viability (Ispinesib + Crizotinib; first compound 0.03162 µM),relative viability (Ispinesib + Crizotinib; first compound 0.1 µM),relative viability (Linsitinib + Foretinib; first compound 0.01 µM),relative viability (Linsitinib + Foretinib; first compound 0.03162 µM),relative viability (Linsitinib + Foretinib; first compound 0.1 µM),relative viability (Linsitinib + Foretinib; first compound 0.3162 µM),relative viability (Linsitinib + Foretinib; first compound 1 µM),relative viability (Ispinesib + Pictilisib; first compound 0.001 µM),relative viability (Ispinesib + Pictilisib; first compound 0.003162 µM),relative viability (Ispinesib + Pictilisib; first compound 0.01 µM),relative viability (Ispinesib + Pictilisib; first compound 0.03162 µM),relative viability (Ispinesib + Pictilisib; first compound 0.1 µM),relative viability (Linsitinib + Vorinostat; first compound 0.01 µM),relative viability (Linsitinib + Vorinostat; first compound 0.03162 µM),relative viability (Linsitinib + Vorinostat; first compound 0.1 µM),relative viability (Linsitinib + Vorinostat; first compound 0.3162 µM),relative viability (Linsitinib + Vorinostat; first compound 1 µM),relative viability (Ispinesib + Crizotinib; first compound 0.003162 µM)
NCI-H661,1.02,1.04,0.736,0.376,0.974,1.07,1.01,0.932,1,0.387,0.471,0.41,0.31,0.332,0.76,0.829,0.75,0.699,0.825,–
CAL-12T,0.688,0.394,0.229,0.282,1.08,1.13,1.18,0.752,1.1,0.413,0.545,0.523,0.295,0.172,0.69,0.744,0.727,0.524,0.569,0.731
HARA,1.33,1.24,1.06,0.188,0.91,0.938,0.758,–,0.932,0.445,0.43,0.392,0.467,0.179,0.51,0.513,0.648,0.347,0.351,1.18
NCI-H596,1.1,1,1.03,0.652,0.831,0.978,0.873,0.871,0.858,0.416,0.377,0.372,0.361,0.251,0.583,0.584,0.597,0.49,0.593,0.95
LU99A,0.503,0.569,0.421,0.231,0.766,0.839,0.838,0.553,0.662,0.358,0.286,0.287,0.223,0.161,0.492,0.466,0.524,–,0.291,0.589
LC-2-ad,0.447,0.439,0.368,0.283,0.983,0.979,0.858,0.738,0.671,0.507,0.509,0.438,0.0946,0.133,0.719,0.693,0.692,0.487,0.443,0.317
NCI-H1650,0.91,0.769,0.223,0.325,1.2,0.902,1.12,0.697,1.03,0.586,0.576,0.338,0.164,0.266,0.51,0.505,0.621,0.386,0.377,1.05
NCI-H1915,0.972,0.926,0.842,0.432,1.13,1.08,1.08,0.986,0.923,0.969,1.07,0.977,0.532,0.232,0.547,0.51,0.528,0.46,0.394,0.675
ABC-1,1.1,0.908,0.248,0.334,1.23,0.924,1.05,0.747,1.76,0.656,0.678,0.692,0.301,0.339,1.4,1.2,0.97,0.803,0.796,1.15
HCC-44,0.796,0.951,0.776,0.121,–,–,–,–,–,0.768,0.858,0.68,0.646,0.106,1.02,1.01,1.03,0.734,1.01,0.905
HCC-78,0.348,0.438,–,0.272,0.545,0.567,0.471,0.44,0.39,0.223,0.198,0.235,–,0.247,–,0.47,0.462,0.402,0.315,0.341
LXF-289,0.798,0.888,0.759,0.397,0.968,0.944,0.984,–,0.994,0.846,0.812,0.909,0.709,0.123,0.735,0.69,0.755,0.473,0.729,0.815
201T,1.05,1.14,1.04,1.01,1.19,1.15,1.07,1.2,0.82,0.724,0.733,0.677,0.643,0.652,0.941,1.06,0.972,0.487,0.832,1.09
NCI-H1734,0.662,0.893,0.648,0.483,0.827,0.866,0.801,0.795,0.604,0.414,0.476,0.506,0.34,0.233,0.865,0.727,0.877,0.554,0.541,0.77
NCI-H1623,–,–,–,–,0.871,0.913,0.85,–,0.671,–,–,–,–,–,–,–,–,–,–,–
NCI-H2126,1.03,1.09,1.07,0.923,1.11,1.28,1.05,1.06,1.06,0.505,0.56,0.563,0.476,0.39,0.855,0.8,0.767,0.451,0.514,1.05
LOU-NH91,0.764,0.706,0.671,0.536,0.953,0.939,0.879,0.926,0.842,0.482,0.54,0.508,0.427,0.256,0.983,0.817,0.914,0.735,0.76,0.744
NCI-H1792,1.26,0.863,0.736,0.32,–,–,–,–,–,0.289,0.303,0.254,0.177,0.302,–,–,–,–,–,1.16
NCI-H1651,0.855,0.99,0.959,0.735,0.7,0.81,0.753,0.683,0.734,0.623,0.66,0.8,0.491,0.18,0.267,0.535,0.5,0.543,0.484,0.936

Cell Line,relative viability (Ispinesib + Crizotinib; first compound 0.001 µM),relative viability (Ispinesib + Crizotinib; first compound 0.01 µM),relative viability (Ispinesib + Crizotinib; first compound 0.03162 µM),relative viability (Ispinesib + Crizotinib; first compound 0.1 µM),relative viability (Linsitinib + Foretinib; first compound 0.01 µM),relative viability (Linsitinib + Foretinib; first compound 0.03162 µM),relative viability (Linsitinib + Foretinib; first compound 0.1 µM),relative viability (Linsitinib + Foretinib; first compound 0.3162 µM),relative viability (Linsitinib + Foretinib; first compound 1 µM),relative viability (Ispinesib + Pictilisib; first compound 0.001 µM),relative viability (Ispinesib + Pictilisib; first compound 0.003162 µM),relative viability (Ispinesib + Pictilisib; first compound 0.01 µM),relative viability (Ispinesib + Pictilisib; first compound 0.03162 µM),relative viability (Ispinesib + Pictilisib; first compound 0.1 µM),relative viability (Linsitinib + Vorinostat; first compound 0.01 µM),relative viability (Linsitinib + Vorinostat; first compound 0.03162 µM),relative viability (Linsitinib + Vorinostat; first compound 0.1 µM),relative viability (Linsitinib + Vorinostat; first compound 0.3162 µM),relative viability (Linsitinib + Vorinostat; first compound 1 µM),relative viability (Ispinesib + Crizotinib; first compound 0.003162 µM)
A549,0.88,0.849,0.0553,0.181,0.97,0.953,0.999,0.695,0.875,0.674,0.525,0.831,0.173,0.158,–,–,–,–,–,0.903
HCC-366,0.6,1.22,0.848,0.0887,0.95,0.996,0.907,0.932,0.956,0.082,0.161,0.143,0.0978,0.0851,0.41,0.328,0.324,0.218,0.0911,0.563
EKVX,1.19,1.06,0.689,0.196,0.988,0.358,0.779,0.252,0.686,0.442,0.423,0.508,0.543,0.438,0.753,0.785,0.798,0.481,0.496,1.34
NCI-H1993,0.837,0.874,0.891,0.661,0.753,0.724,0.653,0.759,0.657,0.808,0.828,0.806,0.7,0.611,0.936,0.737,0.781,0.286,0.644,0.914
NCI-H2342,–,–,–,–,1.06,1.05,1.06,1.01,0.959,–,–,–,–,–,0.689,0.707,0.764,0.727,0.756,–
NCI-H1703,0.811,0.185,0.0885,0.285,0.356,–,0.379,0.513,0.267,0.248,0.218,0.181,0.123,0.136,–,–,–,–,–,0.454
NCI-H23,0.475,0.595,0.499,0.283,1.04,1.06,0.924,0.949,1,0.441,0.479,0.557,0.251,0.189,0.633,0.327,0.765,0.174,0.303,0.46
HCC-827,0.965,0.957,0.918,0.69,1.07,1.1,1.02,–,0.966,0.979,0.964,1.05,0.8,0.734,0.207,0.829,0.799,–,0.639,0.91
PC-3 [JPC-3],0.906,1.11,1.04,0.913,1.04,1.03,1.04,0.951,0.922,0.751,0.812,0.876,0.628,0.53,0.78,0.784,0.843,0.492,0.571,1.04
NCI-H1355,1.13,1.29,1.15,0.451,0.973,0.964,0.873,0.811,0.759,0.418,0.434,0.489,0.252,0.198,0.66,0.65,0.574,0.444,0.311,1.19
NCI-H522,–,–,–,–,–,–,–,–,–,–,–,–,–,–,0.892,1,0.791,0.499,0.727,–
SW 900,–,–,–,–,0.894,1.07,0.881,0.857,0.503,–,–,–,–,–,0.627,0.436,0.458,0.285,0.272,–
NCI-H1563,0.826,0.782,0.949,0.781,0.865,0.984,0.98,0.98,0.903,0.68,0.723,0.533,0.54,0.528,–,–,–,–,–,0.776
NCI-H1648,–,–,–,–,–,–,–,–,–,–,–,–,–,–,0.605,0.412,0.551,0.211,0.57,–
Calu-6,0.992,0.527,0.169,0.265,0.826,0.768,0.837,0.799,0.726,1.09,0.727,0.186,0.113,0.155,–,–,–,–,–,0.618
NCI-H1395,–,–,–,–,0.98,1.01,1,0.957,0.998,0.604,0.663,0.63,0.368,0.383,0.671,–,0.821,0.68,0.644,–
NCI-H1793,–,–,–,–,0.629,0.765,0.643,0.602,0.681,0.331,0.404,0.39,0.217,0.124,0.816,0.749,0.705,0.536,0.433,–
NCI-H1299,1.01,1.02,0.805,0.469,1.07,1.11,1.13,1.12,1.11,0.951,0.727,0.789,0.37,0.152,–,–,–,–,–,0.977
EBC-1,0.189,0.194,0.167,0.152,0.115,0.109,0.0995,0.106,0.104,0.448,0.38,0.328,0.179,0.191,–,–,–,–,–,0.194
